According to ChEMBL document CHEMBL3525928 (Drug Metab Dispos, 2011):
Values belong to the compound of their own block, whether it stands above or below them.

Legend:
[1] = test system: Hepatocyte; details: human, hepatocytes, 5 min, 0.05 µM
[2] = Drug excretion in urine (unknown origin); assay type: ADME, tissue-based; details: human, read-out: Drug excretion
[3] = test system: Hepatocyte; details: human, hepatocytes, 5 min, 0.05 µM; remark: listed apart in the source
[4] = test system: Hepatocyte; details: human, hepatocytes, 5 min, 0.05 µM; remark: listed apart in the source
[5] = test system: Hepatocyte; assay: Drug uptake in sandwich-cultured human hepatocytes lot Hu4165 at 0.05 uM at 37 degC for 5 mins by scintillation spectroscopy in presence of 50 uM FCCP mitochondrial uncouplers (reference value: 100 +/- 3.1 to 100 +/- 7.0%); assay type: ADME, cell-based; design: interact cpd dose 50 uM
[6] = test system: Hepatocyte; details: human, hepatocytes, 5 min, 0.05 µM; remark: listed apart in the source
[7] = test system: Hepatocyte; assay: Uptake clearance in sandwich-cultured human hepatocytes measured per mg of protein at 0.05 to 10 uM at 37 degC by scintillation spectroscopy; assay type: ADME, cell-based
[8] = test system: Hepatocyte; assay: Drug uptake in sandwich-cultured human hepatocytes measured per mg of protein at 0.05 to 10 uM at 37 degC by Michaelis-Menten kinetics/scintillation spectroscopy; assay type: ADME, cell-based
[9] = test system: Hepatocyte; assay: Drug uptake in sandwich-cultured human hepatocytes lot Hu4165 at 0.05 uM at 37 degC for 5 mins by scintillation spectroscopy in presence of 100 uM digoxin cardiac glycosides (reference value: 100 +/- 3.1 to 100 +/- 7.0%); assay type: ADME, cell-based
[10] = test system: Hepatocyte; assay: Uptake clearance in sandwich-cultured human hepatocytes lot Hu4165 […] measured per mg of protein at 0.05 to 1 uM at 37 degC on day 5 by scintillation spectroscopy; assay type: ADME, cell-based
[11] = test system: Hepatocyte; assay: Uptake clearance in sandwich-cultured human hepatocytes lot Hu4165 […] measured per mg of protein at 0.05 to 1 uM at 37 degC after 0.5 to 2 mins by scintillation spectroscopy in presence of 100 uM rifamycin SV; assay type: ADME, cell-based
[12] = test system: Hepatocyte; details: human, hepatocytes, 5 min, 0.05 µM; remark: listed apart in the source
[13] = test system: Hepatocyte; assay: Drug uptake in sandwich-cultured human hepatocytes measured per mg of protein at 0.05 uM at 37 degC after 5 mins by scintillation spectroscopy; assay type: ADME, cell-based
[14] = test system: Hepatocyte; details: human, hepatocytes, 5 min, 0.05 µM; remark: listed apart in the source
[15] = test system: Hepatocyte; details: human, hepatocytes, 5 min, 0.05 µM; remark: listed apart in the source
[16] = test system: Hepatocyte; assay: Drug uptake in sandwich-cultured human hepatocytes measured per mg of protein at 0.05 uM at 4 degC after 5 mins by scintillation spectroscopy; assay type: ADME, cell-based
[17] = test system: Hepatocyte; details: human, hepatocytes, 5 min, 0.05 µM; remark: listed apart in the source
[18] = test system: Hepatocyte; assay: Drug uptake in sandwich-cultured human hepatocytes lot Hu4165 at 0.05 uM at 37 degC for 5 mins by scintillation spectroscopy in presence of 500 uM digoxin (1% DMSO) cardiac glycosides (reference value: 100 +/- 3.1 to 100 +/- 7.0%); assay type: ADME, cell-based
[19] = Drug excretion in bile (unknown origin); assay type: ADME, tissue-based; details: human, read-out: Drug excretion
[20] = test system: Hepatocyte; assay: Drug uptake in sandwich-cultured human hepatocytes at 0.05 uM at 37 degC by scintillation spectroscopy; assay type: ADME, cell-based
[21] = Drug uptake in rat hepatocytes; assay type: ADME, cell-based, Hepatocyte
[22] = test system: Hepatocyte; details: human, hepatocytes, 5 min, 0.05 µM; remark: listed apart in the source
[23] = test system: Hepatocyte; assay: Drug uptake in sandwich-cultured human hepatocytes lot Hu4165 at 0.05 uM at 37 degC for 5 mins by scintillation spectroscopy in presence of 100 uM rifampicin OATP substrate/inhibitor (reference value: 100 +/- 3.1 to 100 +/- 7.0%); assay type: ADME, cell-based; design: interact cpd dose 100 uM
[24] = test system: Hepatocyte; details: human, hepatocytes, 5 min, 0.05 µM; remark: listed apart in the source
[25] = test system: Hepatocyte; details: human, hepatocytes, 5 min, 0.05 µM; remark: listed apart in the source
[26] = test system: Hepatocyte; details: human, hepatocytes, 1 µM
[27] = test system: Hepatocyte; details: human, hepatocytes, 5 min, 0.05 µM; remark: listed apart in the source
[28] = test system: Hepatocyte; details: human, hepatocytes, 5 min, 0.05 µM; remark: listed apart in the source
[29] = test system: Hepatocyte; details: human, hepatocytes, 1 µM; remark: listed apart in the source
[30] = test system: Hepatocyte; details: human, hepatocytes, 5 min, 0.05 µM; remark: listed apart in the source
[31] = test system: Hepatocyte; assay: Drug uptake in sandwich-cultured human hepatocytes lot Hu4165 at 0.05 uM at 37 degC for 5 mins by scintillation spectroscopy in presence of 100 uM BSP A OATP and […] inhibitor (reference value: 100 +/- 3.1 to 100 +/- 7.0%); assay type: ADME, cell-based; design: interact cpd dose 100 uM
[32] = Drug uptake in sandwich-cultured human hepatocytes at 0.05 to 10 uM at 37 degC by Michaelis-Menten kinetics/scintillation spectroscopy; assay type: ADME, cell-based, Hepatocyte
[33] = molecular target: T1, OATP1B1 (Homo sapiens, UniProt Q9Y6L6); assay: Drug uptake ratio assessed as enzyme-mediated uptake in HEK293 cells expressing human OATP1B1 at 10 uM at 37 degC for 3 mins by liquid scintillation spectroscopy relative to wild type; assay type: ADME, cell-based
T1 sequence (Q9Y6L6 whole entry): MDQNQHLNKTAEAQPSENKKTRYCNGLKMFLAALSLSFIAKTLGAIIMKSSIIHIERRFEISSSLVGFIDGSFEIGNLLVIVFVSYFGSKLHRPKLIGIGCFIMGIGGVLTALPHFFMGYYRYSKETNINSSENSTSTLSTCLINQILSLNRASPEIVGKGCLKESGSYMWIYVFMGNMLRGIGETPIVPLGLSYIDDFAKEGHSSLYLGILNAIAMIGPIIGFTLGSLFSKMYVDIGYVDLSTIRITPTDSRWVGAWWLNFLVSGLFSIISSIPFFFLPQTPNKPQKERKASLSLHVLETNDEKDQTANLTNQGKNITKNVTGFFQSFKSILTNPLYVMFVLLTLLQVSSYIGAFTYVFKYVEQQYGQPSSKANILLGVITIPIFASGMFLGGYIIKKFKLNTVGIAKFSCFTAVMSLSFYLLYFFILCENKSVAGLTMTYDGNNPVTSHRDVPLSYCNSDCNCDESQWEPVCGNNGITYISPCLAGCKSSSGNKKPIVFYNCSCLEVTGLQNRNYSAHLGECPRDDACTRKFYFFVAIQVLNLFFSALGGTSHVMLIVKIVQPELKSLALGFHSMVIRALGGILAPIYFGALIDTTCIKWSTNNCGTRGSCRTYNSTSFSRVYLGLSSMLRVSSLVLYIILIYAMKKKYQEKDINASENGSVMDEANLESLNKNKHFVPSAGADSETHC

[34] = molecular target: T2, OATP2B1 (Homo sapiens, UniProt O94956); assay: Drug uptake ratio assessed as enzyme-mediated uptake in HEK293 cells expressing human OATP2B1 at 10 uM at 37 degC for 3 mins by liquid scintillation spectroscopy relative to wild type; assay type: ADME, cell-based
T2 sequence (O94956 whole entry): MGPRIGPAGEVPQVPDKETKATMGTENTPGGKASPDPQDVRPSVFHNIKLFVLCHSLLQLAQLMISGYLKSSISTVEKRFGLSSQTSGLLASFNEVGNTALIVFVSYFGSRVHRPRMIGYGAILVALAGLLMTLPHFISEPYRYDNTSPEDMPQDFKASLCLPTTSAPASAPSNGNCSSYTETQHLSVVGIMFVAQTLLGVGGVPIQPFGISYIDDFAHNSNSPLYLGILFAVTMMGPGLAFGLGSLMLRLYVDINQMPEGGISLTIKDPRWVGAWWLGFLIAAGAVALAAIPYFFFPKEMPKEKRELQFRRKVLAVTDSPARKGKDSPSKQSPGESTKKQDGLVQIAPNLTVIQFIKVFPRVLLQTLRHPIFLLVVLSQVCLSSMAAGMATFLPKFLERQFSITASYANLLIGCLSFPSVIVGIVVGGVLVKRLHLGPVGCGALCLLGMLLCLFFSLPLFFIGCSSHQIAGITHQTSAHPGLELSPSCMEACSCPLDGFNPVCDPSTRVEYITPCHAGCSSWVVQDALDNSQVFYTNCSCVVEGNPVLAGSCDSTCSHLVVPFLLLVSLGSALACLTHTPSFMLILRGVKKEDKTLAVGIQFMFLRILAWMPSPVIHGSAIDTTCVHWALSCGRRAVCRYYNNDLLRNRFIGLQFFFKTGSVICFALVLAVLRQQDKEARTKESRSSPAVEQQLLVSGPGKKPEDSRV

[35] = molecular target: T2, OATP2B1; assay: Drug uptake ratio assessed as enzyme-mediated uptake in HEK293 cells expressing human OATP2B1 at 1 uM at 37 degC for 3 mins by liquid scintillation spectroscopy relative to wild type; assay type: ADME, cell-based
[36] = molecular target: T1, OATP1B1; assay: Drug uptake ratio assessed as enzyme-mediated uptake in HEK293 cells expressing human OATP1B1 at 1 uM at 37 degC for 3 mins by liquid scintillation spectroscopy relative to wild type; assay type: ADME, cell-based

Drug uptake [1]: 67.5% | dose excreted [2]: 50% | Drug uptake [3]: 163% | Drug uptake [4]: 114% | Drug uptake [5]: 63.8% | Drug uptake [6]: 158% | CLup [7]: 1.88 µL/min/g | Vmax [8]: 4.49 pmol/min | Drug uptake [9]: 48.9% | CLup [10]: 3.6 µL/min/g | CLup [11]: 4.53 µL/min/g | Drug uptake [12]: 110% | Drug uptake [13]: 153 fmol/min | Drug uptake [14]: 115% | Drug uptake [15]: 90.5% | Drug uptake [16]: 1.33 fmol/min | Drug uptake [17]: 63.1% | Drug uptake [18]: 55.5% | dose excreted [19]: 30% | Drug uptake [20]: Active | Km [21]: 0.18 µM | Drug uptake [22]: 50.5% | Drug uptake [23]: 120% | Drug uptake [24]: 45% | Drug uptake [25]: 79.2% | CLup [26]: 4.06 µL/min/g | Drug uptake [27]: 89.9% | Drug uptake [28]: 87.4% | CLup [29]: 1.88 µL/min/g | Drug uptake [30]: 55.4% | Drug uptake [31]: 113% | Km at up to 10 µM [32]: 2.39 µM
Structure (SMILES): C[C@H]1O[C@@H](O[C@H]2[C@@H](O)C[C@H](O[C@H]3[C@@H](O)C[C@H](O[C@H]4CC[C@@]5(C)[C@H](CC[C@@H]6[C@@H]5C[C@@H](O)[C@]5(C)[C@@H](C7=CC(=O)OC7)CC[C@]65O)C4)O[C@@H]3C)O[C@@H]2C)C[C@H](O)[C@@H]1O [DIGOXIN]

uptake ratio at 0.05 h, 10 µM [33]: 2.2 | uptake ratio at 0.05 h, 10 µM [34]: 50 | uptake ratio at 0.05 h, 1 µM [35]: 44 | uptake ratio at 0.05 h, 1 µM [36]: 6.7
Structure (SMILES): C[C@]12CC[C@@H]3c4ccc(OS(=O)(=O)O)cc4CC[C@H]3[C@@H]1CCC2=O [ESTRONE SULFURIC ACID]
